In patent publication US7553642B2, “Branched neutral amino acid transporters acting as single molecule” (Human Cell Systems, Inc., priority 2003, dated 2009):
“Also recorded” adds a separate entry of the source. Like-named read-outs stand apart in the source and are kept apart here.

What was measured:
Type in all cases: cell-based
[1] = target: T1, human LAT3 (Homo sapiens, UniProt O75387); test: Inhibition of 14C-leucine uptake by Xenopus oocytes injected with human LAT3 cRNA
T1 construct: An expression plasmid vector pSPORT1 containing cDNA of human LAT3 was cleaved by a restriction enzyme NotI, and cRNA; expressed in transfected cells; host or cells: Xenopus laevis oocytes injected with cRNA
T1 sequence (O75387 1-559): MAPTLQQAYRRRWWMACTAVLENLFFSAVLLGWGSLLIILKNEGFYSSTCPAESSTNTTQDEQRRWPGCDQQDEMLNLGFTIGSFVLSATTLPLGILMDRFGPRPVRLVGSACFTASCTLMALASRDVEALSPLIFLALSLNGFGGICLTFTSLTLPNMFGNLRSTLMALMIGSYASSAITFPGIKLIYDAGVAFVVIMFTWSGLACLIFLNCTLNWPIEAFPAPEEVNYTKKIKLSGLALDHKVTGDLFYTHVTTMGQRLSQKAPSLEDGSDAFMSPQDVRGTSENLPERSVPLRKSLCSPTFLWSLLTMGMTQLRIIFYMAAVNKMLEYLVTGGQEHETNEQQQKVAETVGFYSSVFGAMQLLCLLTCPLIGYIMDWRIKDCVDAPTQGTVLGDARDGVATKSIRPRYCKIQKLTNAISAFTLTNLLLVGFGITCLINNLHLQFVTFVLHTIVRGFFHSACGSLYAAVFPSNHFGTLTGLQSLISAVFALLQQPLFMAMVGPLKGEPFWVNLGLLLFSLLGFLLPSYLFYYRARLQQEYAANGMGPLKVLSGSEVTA

[2] = target: T2, mouse LAT4 (Mus musculus, UniProt Q8CGA3, K402E/P237S); test: Inhibition of 14C-leucine uptake by oocytes injected with mouse LAT4 cRNA; conditions: 14C-leucine 100 μM, 10 mM unlabeled compound, Na+-free uptake solution, Xenopus oocytes
T2 construct: An expression plasmid vector pcDNA 3.1(+) containing cDNA of mouse LAT4 was cleaved by a restriction enzyme XbaI; expressed in transfected cells; host or cells: Xenopus laevis oocytes injected with cRNA (from pcDNA3.1(+), IMAGE clone 2235970)
T2 sequence (Q8CGA3 whole entry P237S/K402E): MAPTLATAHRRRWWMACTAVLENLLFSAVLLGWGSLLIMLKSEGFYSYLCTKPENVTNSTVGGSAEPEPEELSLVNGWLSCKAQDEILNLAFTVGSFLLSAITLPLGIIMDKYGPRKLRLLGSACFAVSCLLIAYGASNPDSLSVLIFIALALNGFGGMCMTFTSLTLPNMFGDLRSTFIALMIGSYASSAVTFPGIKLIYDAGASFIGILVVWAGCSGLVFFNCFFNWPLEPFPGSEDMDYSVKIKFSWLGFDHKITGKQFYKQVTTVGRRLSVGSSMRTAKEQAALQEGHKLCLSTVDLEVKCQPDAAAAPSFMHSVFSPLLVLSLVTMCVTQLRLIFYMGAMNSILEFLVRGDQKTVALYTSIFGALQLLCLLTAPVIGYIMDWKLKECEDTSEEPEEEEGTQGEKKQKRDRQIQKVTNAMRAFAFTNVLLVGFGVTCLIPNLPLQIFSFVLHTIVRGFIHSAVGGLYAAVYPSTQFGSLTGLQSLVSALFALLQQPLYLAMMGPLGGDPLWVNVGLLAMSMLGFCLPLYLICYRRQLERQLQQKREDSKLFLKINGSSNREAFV
Experimental: In this regard, uptake of ^14C-leucine (100 μM) into the oocytes was measured in the presence or the absence of 10 mM of various compounds (unlabeled) in the Na^+-free uptake solution.

[3] = target: T1, human LAT3; test: Influence of N-ethylmaleimide on leucine uptake by oocytes expressing human LAT3; conditions: pretreatment with 5 mM for 15 minutes; 14C-L-leucine 100 μM, 10 minutes
Experimental: Each of the oocytes injected with cRNA of the human LAT3 gene, injected with cRNA of the human LAT3 gene and cRNA of 4F2hc gene, or injected with water as a control was cultured for 10 minutes in the Na^+-free uptake solution containing ^14C-L-leucine (100 μM) (refer to Example 3 (2)), and uptake of radioactivity into the oocytes was measured according to the method described in Example 3 (1). In this regard, influences of pretreatment with 5 mM of N-ethylmaleimide for 15 minutes, and the presence or absence of 5 mM of N-ethylmaleimide in the uptake solution on the ^14C-leucine uptake were investigated.

[4] = system: LAT1; test: Influence of N-ethylmaleimide on leucine uptake mediated by LAT1; conditions: 5 mM; 14C-L-leucine 100 μM, 10 minutes
[5] = target: T1, human LAT3; test: Uptake of radiolabeled amino acids by Xenopus oocytes injected with human LAT3 cRNA; conditions: 14C-labeled substrate in place of 14C-leucine, Na+-free uptake solution, 10 minutes
Experimental: The substrate uptake by the injected oocytes using leucine as a substrate was carried out according to the method described by Kanai et al. (Kanai and Hediger, Nature, Vol. 360, 467-471 (1992)), as follows. The oocytes was cultured for 30 minutes in the Na^+-free uptake solution (100 mM of choline chloride, 2 mM of potassium chloride, 1.8 mM of calcium chloride, 1 mM of magnesium chloride, 5 mM of HEPES, pH 7.4) using ^14C-leucine (100 μM) as a substrate, and uptake rate of the substrate was measured by counting radioactivity in the cell.
The oocytes was injected with 25 ng of human LAT3 gene cRNA to be expressed thereby, and cultured for 3 days.
The experiment of the leucine uptake was carried out as follows according to the above described method in Example 1 (1). That is, the oocytes injected with the cRNA of the human LAT3 gene or water as a control were cultured for 10 minutes in Na^+-free uptake solution containing ^14C-leucine (100 μM) (refer to Example 1 (1)), and measured uptake of radioactivity into the cells.
The leucine uptake was conducted at the leucin concentrations of 1, 3, 10, 30, 60, 100, 200, 400, 1000, 2000 and 3000 μM using the oocytes injected with cRNA of the human LAT3 gene according to the above-described method in Example 3 (1). […] In addition, it was clarified that the leucine transport mediated by LAT3 is composed of high affinity component and low affinity component (FIG. 6, inserted figure).
An uptake experiment of various amino acids and amino acid analogs was carried out using the oocytes injected with cRNA of the human LAT3 gene according to the above-described method in Example 3 (1), provided that various radiolabeled amino acids were utilized in place of the ^14C-leucine.

[6] = target: T2, mouse LAT4; test: Uptake of radiolabeled amino acids by Xenopus oocytes injected with mouse LAT4 cRNA; conditions: 14C-labeled substrate in place of 14C-leucine
Experimental: The oocytes was injected with 25 ng of cRNA of the mouse LAT4 gene to be expressed thereby, and cultured for 3 days.
An experiment of leucine uptake was carried out as follows according to the above-described method in Example 3 (1). That is, the oocytes injected with cRNA of the mouse LAT4 gene or water as a control were cultured for 10 minutes in the Na^+-free uptake solution containing […] (100 μM) (refer to Example 3 (1)), and measured the uptake of radioactivity into the cells.
The leucine uptake was conducted at the leucin concentrations of 0.01, 0.03, 0.1, 0.3, 1, 3 and 10 mM, using the oocytes injected with cRNA of the mouse LAT4 gene according to the above-described method in Example 3 (1). […] In addition, it was clarified that the leucine transport mediated by LAT4 is composed of a high affinity component and a low affinity component, just like the leucin uptake mediated by LAT3.
An uptake experiment of various amino acids and amino acid analogs was carried out using the oocytes injected with cRNA of the mouse LAT4 gene according to the above-described method in Example 3 (1). In this regard, in place of ^14C-leucine, various radiolabeled amino acids were utilized.

[7] = 14C-leucine 100 μM, 10 mM unlabeled compound, Na+-free uptake solution, 10 minutes, Xenopus oocytes

| SMILES | inhibitory effect on the LAT3 mediated 14C-leucine uptake [1, 7] | inhibitory effect on the LAT4 mediated 14C-leucine uptake [2] | other results |
| --- | --- | --- | --- |
| CC(=O)N[C@@H](CC(C)C)C(=O)O [N-acetyl-leucine, N-acetyl-L-leucine] | significant inhibitory activity | – | – |
| CC(C)CCN [Isopentylamine, isopentylamine] | significant inhibitory activity | – | – |
| COc1ccc2c(c1)c(CC(=O)O)c(C)n2C(=O)c1ccc(Cl)cc1 [indomethacin] | strong inhibitory effect | – | – |
| NCCc1ccccc1 [phenylethylamine, 2-phenylethylamine] | significant inhibitory activity | – | – |
| CC(C)CC(C)N (centres unmarked) [1,3-dimethyl-n-butylamine] | significant inhibitory activity | – | – |
| NC1(C(=O)O)CC2CCC1C2 (centres unmarked) [BCH, 2-aminobicyclo-(2,2,1)-heptane-2-carboxylic acid] | strong inhibition | strong inhibition | – |
| CCN1C(=O)C=CC1=O [N-ethylmaleimide] | – | – | effect on 14C-L-leucine uptake mediated by human LAT3 [3]: completely abolished; also recorded: inhibited; effect on 14C-L-leucine uptake mediated by LAT1 [4]: did not affect |
| N[C@@H](CC(=O)O)C(=O)O [aspartic acid] | did not affect | did not affect | – |
| N[C@@H](Cc1ccccc1)C(=O)O [L-phenylalanine] | strong cis-inhibitory effect | strong cis-inhibitory effect | uptake of radiolabeled substrate into oocytes expressing human LAT3 [5]: a large amount of uptake; uptake of radiolabeled substrate into oocytes expressing mouse LAT4 [6]: a large amount of uptake |
| CSCC[C@@H](N)C(=O)O [D-methionine] | – | relatively strong inhibitory effect | – |
| C[C@@H]1Cc2c(Cl)cc(C(=O)N[C@@H](Cc3ccccc3)C(=O)O)c(O)c2C(=O)O1 [ochratoxin A] | strong inhibitory effect; also recorded: strongly inhibited | – | – |
| N[C@H](Cc1c[nH]cn1)C(=O)O [D-histidine] | – | relatively strong inhibitory effect | – |
| COC(=O)[C@@H](N)CC(C)C [leucine methylester, L-leucine-methylester] | significant inhibitory activity | – | – |
| CC(C)C[C@H](N)CO [leucinol, L-leucinol] | strongly inhibited | – | – |
| N=C(N)NCCC[C@H](N)C(=O)O [arginine] | did not affect | did not affect | – |
| O=C(O)c1ccccc1O [salicylic acid] | weak but significant inhibitory effects | – | – |
| CSCC[C@H](N)C(=O)O [L-methionine] | – | strong cis-inhibitory effect | inhibitory effect on the LAT3 mediated 14C-leucine uptake [1]: strong cis-inhibitory effect; uptake of radiolabeled substrate into oocytes expressing human LAT3 [5]: small but significant uptake; uptake of radiolabeled substrate into oocytes expressing mouse LAT4 [6]: a large amount of uptake |
| CC(C)[C@H](N)CO [valinol, L-valinol] | relatively strong inhibitory effects | – | – |
| CC(C)CN [isobutylamine] | significant inhibitory activity | – | – |
| N[C@@H](CCC(=O)O)C(=O)O [glutamic acid] | did not affect | did not affect | – |
| CCCN(CCC)S(=O)(=O)c1ccc(C(=O)O)cc1 [probenecid] | weak but significant inhibitory effects | – | – |
| N[C@H](CO)Cc1ccccc1 [phenylalaninol, L-phenylalaninol] | relatively strong inhibitory effects; also recorded: strongly inhibited | – | – |
| CC(C)C[C@@H](N)C(=O)O [D-leucine] | relatively strong inhibitory effect | relatively strong inhibitory effect | uptake of radiolabeled substrate into oocytes expressing human LAT3 [5]: significant uptake; uptake of radiolabeled substrate into oocytes expressing mouse LAT4 [6]: significant uptake |
| CC(C)[C@H](N)C(=O)O [L-valine] | strong cis-inhibitory effect | strong cis-inhibitory effect | uptake of radiolabeled substrate into oocytes expressing human LAT3 [5]: a large amount of uptake; uptake of radiolabeled substrate into oocytes expressing mouse LAT4 [6]: a large amount of uptake |
| NCCCC[C@H](N)C(=O)O [lysine] | did not affect | did not affect | – |
| O=C(O)[C@@H]1CCCN1 [L-proline] | did not affect | did not affect | uptake of radiolabeled substrate into oocytes expressing human LAT3 [5]: small but significant uptake |
| CC[C@H](C)[C@H](N)C(=O)O [L-isoleucine] | strong cis-inhibitory effect | strong cis-inhibitory effect | uptake of radiolabeled substrate into oocytes expressing human LAT3 [5]: a large amount of uptake; uptake of radiolabeled substrate into oocytes expressing mouse LAT4 [6]: a large amount of uptake |
